We go through one compound from patent US20250368638A1, “BICYCLIC INHIBITORS OF NICOTINAMIDE […], COMPOSITIONS AND USES THEREOF” (President and Fellows of Harvard College, priority 2021, published 2025).

pIC50: −log10 of the molar value. Values joined by “and” are separate entries in the source; they are usually repeats but may differ in a detail not shown here. Equal entries are not always repeated.

The test system of data set [1] is Salmonella typhimurium (TA98, TA1535, TA1537) and Escherichia coli WP2uvrA (pKM101). Kind of data set: Mini-Ames test. It is filed as cell-based. Here is the method:
1. The study evaluated the mutagenic potential of the test article, (or its metabolites) by measuring its ability to induce reverse mutations at selected loci of bacteria Salmonella typhimurium (TA98, TA1535, TA1537) and Escherichia coli WP2uvrA (pKM101) in both the presence and absence of microsomal enzymes.
2. […] Top agar containing 0.6% (w/v) agar and 0.5% (w/v) sodium chloride were supplemented with 0.5 mM D-biotin and 0.5 mM L-histidine for Salmonella typhimurium strains used or 0.5 mM D-biotin and 0.5 mM L-tryptophan for Escherichia coli WP2uvrA (pKM101) used.
3. In the Mini-Ames test, 4 strains were selected for testing: Salmonella typhimurium (TA98, TA1535.TA1537) and Escherichia coli WP2uvrA (pKM101). The test strains were prepared from frozen working stocks. 10 μL frozen working stock adding in 5 mL nutrient broth were incubated with 220 rpm shaking at 37±2° C. for 10 hours until an optical density (at 650 nm) of 0.6-0.8 were reached. The overnight culture were used for the mutagenicity test.
4. The test article was supplied as the powder and maintained at −20° C. until use. Stock solutions were prepared at 50 mg/mL in DMSO (Table 11A). […]
7. […] If the precipitation dose interfere with the scoring (count the number of the revertants), the lowest precipitating dose should be used as the top dose scored. […]
Background lawns are measured microscopically using a stereoscope. […]
For orientation: The Ames test uses bacterial strains that need an amino acid and regain growth without it when mutated back.

Data set [2] is described as follows: Metabolic stability in pooled male mouse liver microsomes. The procedure: A master solution was prepared according to the following table.
40 μL of 10 mM NADPH solution was added to each well. The final concentrations of NADPH was 1 mM. The mixture was pre-warmed at 37° C. for 5 minutes. The negative control samples were prepared by replacing NADPH solutions with 40 μL of ultra-pure H2O. The negative control was used to exclude the misleading factor that resulted from instability of chemical itself. Samples with NADPH were prepared in duplicate. Negative controls were prepared in singlet.
The reaction was started with the addition of 4 μL of 200 μM control compound or test compound solutions. […] Samples were centrifuged at 3, 220 g for 40 minutes. Aliquot of 90 μL of the supernatant was mixed with 90 μL of ultra-pure H2O and then used for LC-MS/MS analysis.
For metabolite standard samples: 1 μL of 400 μM working solution was added to 89 μL master solution following by adding 400 μL of cold acetonitrile with internal standard (IS) (100 nM alprazolam, 200 nM Imipramine, 200 nM labetalol and 2 μM ketoprofen). Then 10 μL of 10 mM NADPH solution or ultra-pure H2O was added to the mixture. Samples were centrifuged at 3,220 g for 40 minutes to precipitate protein. Aliquots of 90 μL supernatant diluted by 90 μL of water was used for LC-MS/MS analysis.

The target in the next data set is T1, recombinant human NNMT (Homo sapiens, UniProt P40261).
T1 sequence (P40261 1-264): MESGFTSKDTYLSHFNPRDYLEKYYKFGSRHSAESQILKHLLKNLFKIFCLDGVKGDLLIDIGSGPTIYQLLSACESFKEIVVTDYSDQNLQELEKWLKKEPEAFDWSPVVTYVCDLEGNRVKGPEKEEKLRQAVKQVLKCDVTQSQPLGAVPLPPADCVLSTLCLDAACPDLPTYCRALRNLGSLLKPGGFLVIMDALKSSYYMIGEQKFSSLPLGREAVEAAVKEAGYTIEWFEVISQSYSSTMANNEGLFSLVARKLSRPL
Kind of data set: in vitro NNMT enzyme inhibition assay (Promega MTase-Glo Methyltransferase Assay). The data set is classed as biochemical. The settings on record: 40 nM recombinant human NNMT, 8 μM nicotinamide, 6.7 μM SAM, 20 minutes. Here is the method:
NNMT biochemical activity for was evaluated using the Promega Mtase-Glo Methyltransferase Assay kit. Assays were performed in a white, flat-bottomed 96 well plate. […] Reactions were performed for 20 minutes at room temperature. MTase-Glo reagent and MTase-Glo detection solution were added according to manufacturer's instructions and luminescence signal measured with a SpectraMax i3 plate reader and data analyzed with GraphPad Prism version 9. Scheme 16 depicts a visual summary of the Promega MTase-Glo Methyltransferase assay used to assess biochemical activity of novel inhibitors.

Where [3] appears, read: male, mouse, pooled liver microsomes.

As a reminder, the CLint scaled is the capacity of the preparation to metabolise the compound, expressed as a volume cleared per time. A lower CLint scaled goes with greater metabolic stability. The half-life is the time in which the quantity being followed falls by half. Low readings indicate fast loss, high ones slow loss. As a reminder, the microsomal CLint is the capacity of the preparation to metabolise the compound, expressed as a volume cleared per time. A lower microsomal CLint goes with slow turnover. The term pIC50 denotes the negative decadic logarithm of the IC50, by convention in mol/L.

In the case of `C[C@@H]1Cc2cc(C(N)=O)cnc2N1` [Compound 11, (2R)-2-methyl-2,3-dihydro-1H-pyrrolo[2,3-b]pyridine-5-carboxamide], the “F value (Mini Ames)” value in data set [1] (all tested concentrations, every strain, with and without an S9 Fraction) is on record as “less than 2”. Also, the “Mutagenicity (Mini-Ames)” value in data set [1] (various bacteria strains, with and without S9) is “not mutagenic”. Further, in data set [2] (Mouse liver microsomes), the “Predicted hepatic CL” value is on record as less than 18.76 mL/min/kg and the “Remaining (%) at 60 minutes” value came out at 93.24%. In data set [2] (setting [3]), this compound returned a CLint scaled at 2 μM of less than 23.7 mL/min/kg, a half-life at 2 μM greater than 4.26 h and an intrinsic metabolic clearance (microsomal CLint) at 2 μM of less than 5.42 µL/min/mg. For the same compound, at recombinant human NNMT, the pIC50 is 7.46 and 7.38 to 7.46.
